Experimental data reported in patent US9586885B2, “Compounds for use in the treatment of inflammatory bowel disease” (Venantius Limited, priority 2011, dated 2017).
Like-named read-outs stand apart in the source and are kept apart here.

Columns and labels:
[1] = test system: 5% DSS colitis; assay: Acute murine 5% DSS colitis model; format: in vivo; conditions: for effect on DAI compared to vehicle control: FIG. 5; for colon pathology (histology score) relative to vehicle: FIG. 12; for colon IL1β level versus DSS vehicle / colon TNFα level versus DSS vehicle / colon IL6 level versus DSS vehicle / reduction of colonic myeloperoxidase (MPO) activity: day 7; for colon IL1β level versus DSS vehicle: FIG. 14(a); for colon TNFα level versus DSS vehicle: FIG. 14(b); for colon IL6 level versus DSS vehicle: FIG. 14(c); for reduction of colonic myeloperoxidase (MPO) activity: FIG. 13; for DAI on the day of autopsy versus vehicle controls: FIG. 9; for inhibition of colon shortening (colon length) day 7 versus vehicle: FIG. 10
Source text: The study is widely used as a model for studying the pathogenesis of UC and also for screening new therapeutic interventions for the treatment of UC.
In these studies, an acute colitis model was used, with 5% DSS administered in the drinking water of BALB/c mice. This dosage regime induces severe acute colitis, by days 7-8 mice had overt rectal bleeding and marked weight loss; unless sacrificed beforehand, all mice would have died by days 10-12.
Specific Pathogen-Free BALB/c mice, 6-8 weeks of age, were obtained from a commercial supplier (Harlan UK). Mice were fed irradiated diet and housed in individually ventilated cages (Tecniplast UK) under positive pressure.
DSS (5%) was dissolved in drinking water. Compounds were administered orally at a dose of 10 mg/kg or 30 mg/kg on days 0-7, and mice were culled on day 8 or day 9, depending on the severity of the disease. The mice were checked each day for morbidity and the weight of individual mice was recorded. Induction of colitis was determined upon autopsy, length of colon and histology. Colons were recovered and stored at −20° C. for immunological analysis. All of the compounds and experimental groups are randomly alphabetically labelled. Throughout experiments all data recording was performed in a blind manner. The codes on boxes/groups were not broken until after the data was analysed i.e. boxes labelled A, B, C etc were identified as untreated, DSS-treated, or DSS+compound-treated.
To quantify the extent of colitis, a disease activity index (DAI) was determined based on weight loss, faecal blood and stool consistency. A score was given for each parameter, with the sum of the scores used as the DAI. For each treatment group n=8.
All compounds were prepared for oral gavage (0.1 mL per os (p.o.) per 10 g body weight) as a suspension in 0.5% carboxymethyl cellulose/2% Tween 80, at a dose of 3-30 mg/Kg.

[2] = Solubility in water and buffers; format: physicochemical; conditions: for aqueous solubility (in words): free acid enantiomers
Protocol: The sodium salt, potassium salt, calcium salt, α-methylbenzylamine salt and N-Methyl-(D)-Glucamine salt were synthesised.
The solubility of the four compounds was determined: […]

[3] = Partition coefficient by HPLC method (reverse phase C18); format: physicochemical; conditions: for Acid Log10 POW: acidic pH; for Basic Log10 POW: alkaline pH; for Neutral Log10 POW: neutral pH
[4] = test system: chronic colitis in IL10^--/-- mice; assay: Chronic IL10-/- colitis model; format: in vivo, BALB/c strain mice; conditions: 300 mg/kg/week oral, MWF
Protocol: FIG. 15 Is a grph showing weight loss in IL10^--/--mice treated with vehicle or compound 6. Mice were administered compound 6 (300 mg/kg/week) or vehicle orally on a Monday/Wednesday/Friday (MWF) dosing schedule. Mice were ˜4 weeks of age at start of experiment and were treated for 9 weeks. Mice were weighed weekly and data are presented as Mean±SEM from 9-12 mice per group. Mice were monitored for overt disease, rectal prolapse, and moribund animals were humanely killed;
Mice with a deletion in the IL10^--/-- gene spontaneously develop chronic colitis, with the age of onset and the severity of the disease being dependent on background mouse strain and the conditions in which the animals are housed. The onset of colitis in IL10^--/-- mice housed under the conditions used in this study was also strain dependent, with an earlier onset and greater severity, in terms of mortality, in BALB/c strain mice relative to C57BL/6 strain animals. In this experiment, animals received oral treatment on a MWF regime over 9 weeks. Initially, both groups of mice progressively gain weight (FIG. 15). […] By week 9 animals had marked weight loss, with one moribund animal humanely killed on day 60 in each group. As other mice were losing weight and developing clinical symptoms of disease, both groups were culled at week 9 (day 63) and analysed. […] Serum was recovered from mice and Serum Amyloid A (SAA) and was analysed as a marker for severity of colitis.

[5] = 30 mg/kg p.o. daily for 7 days, vehicle controls 9.0+0.53, FIG. 4
[6] = 10 mg/kg daily for 7 days, vehicle 9.3±0.51, FIG. 6

## O=C(O)c1ccc(C[C@]2(C3=Cc4ccccc4C3)Cc3ccccc3[C@H]2O)cc1 [Compound 5, 4-(((1S,2R)-1-hydroxy-2,3-dihydro-1H,1′H-2,2′-biinden-2-yl)methyl)benzoic acid]
[1]; 10 mg/kg daily for 7 days
  effect on DAI compared to vehicle control: no significant (P>0.05) effect
[1]; 30 mg/kg p.o. daily for 7 days
  activity in 5% DSS murine colitis model (conclusion): highly active
[1]; [5]
  disease activity index (DAI) at day 7: 3.2±0.73
[2]
  aqueous solubility (in words): limited aqueous solubility
[3]
  Acid Log10 POW: 3.9
  Basic Log10 POW: 3.7
  Neutral Log10 POW: 3.7

## C[C@]12C=CC(=O)C=C1CC[C@@H]1[C@@H]2[C@@H](O)C[C@@]2(C)[C@H]1CC[C@]2(O)C(=O)CO [Prednisolone, reference compound]
[1]; 5 mg/Kg
  colon pathology (histology score) relative to vehicle: no significant improvement
[1]; 5 mg/kg
  colon IL1β level versus DSS vehicle: reduced (p<0.05)
  colon TNFα level versus DSS vehicle: reduced (p<0.05)
  colon IL6 level versus DSS vehicle: reduced (p<0.05)
  DAI on the day of autopsy versus vehicle controls: reduced DAI scores
  inhibition of colon shortening (colon length) day 7 versus vehicle: did have a significant effect
[1]; 5 mg/kg, P<0.05
  reduction of colonic myeloperoxidase (MPO) activity: 54%

## O=C(O)c1ccc(C[C@@]2(C3=Cc4ccccc4C3)Cc3ccccc3[C@@H]2O)cc1 [Compound 4, 4-(((1R,2S)-1-hydroxy-2,3-dihydro-1H,1′H-2,2′-biinden-2-yl)methyl)benzoic acid]
[1]; 30 mg/kg p.o. daily for 7 days
  activity in 5% DSS murine colitis model (conclusion): almost devoid of activity
[1]; 30 mg/kg p.o. daily for 7 days, FIG. 3
  DAI versus vehicle at any time point: without activity

## CNCC(O)C(O)C(O)C(O)CO.O=C(O)c1ccc(C[C@]2(C3=Cc4ccccc4C3)Cc3ccccc3[C@H]2O)cc1 [Compound 7, 6-(Methylamino)hexane-1,2,3,4,5-pentanol 4-(((1S,2R)-1-hydroxy-2,3-dihydro-1H,1′H-2,2′-biinden-2-yl)methyl)benzoate]
[1]; 10 mg/kg daily for 7 days
  effect on DAI compared to vehicle control: no significant (P>0.05) effect
[2]; Milli-RO water, * = estimated value, listed as Compound 5 N-Methyl-D-Glucamine salt
  solubility Milli-RO H20: >60,000* μg/mL
[2]; pH 4.0 buffer
  solubility pH 4.0 Buffer: 0.14 μg/mL
[2]; pH 7.0 buffer, * = estimated value, listed as Compound 5 N-Methyl-D-Glucamine salt
  solubility pH 7.0 Buffer: >60,000* μg/mL
[2]; pH 9.0 buffer, * = estimated value, listed as Compound 5 N-Methyl-D-Glucamine salt
  solubility pH 9.0 Buffer: >60,000* μg/mL
[3]
  Acid Log10 POW: 3.8
  Basic Log10 POW: 3.5
  Neutral Log10 POW: 3.5

## O=C(O)c1ccc(C[C@@]2(C3=Cc4ccccc4C3)Cc3ccccc3[C@H]2O)cc1 (single isomer, unassigned) [Compound 2]
[1]; [6]
  disease activity index (DAI) at day 7: 2.1±0.7
[1]; 30 mg/kg p.o. daily for 7 days
  activity in 5% DSS murine colitis model (conclusion): highly active
[1]; [5]
  disease activity index (DAI) at day 7: 2.5±0.71
[2]
  aqueous solubility (in words): limited aqueous solubility

## O=C(O)c1ccc(C[C@]2(C3=Cc4ccccc4C3)Cc3ccccc3[C@@H]2O)cc1 (single isomer, unassigned) [Compound 3]
[1]; 30 mg/kg p.o. daily for 7 days
  activity in 5% DSS murine colitis model (conclusion): minimal activity
[1]; [5]
  disease activity index (DAI) at day 7: 5.3±0.6
[1]; 30 mg/kg p.o. daily, FIG. 3
  DAI versus vehicle at day 6: no statistical (P>0.05) difference

## O=C(O)c1ccc(C[C@@]2(C3=Cc4ccccc4C3)Cc3ccccc3[C@H]2O)cc1 [Compound 6, 6-(Methylamino)hexane-1,2,3,4,5-pentanol 4-(((1S,2S)-1-hydroxy-2,3-dihydro-1H,1′H-2,2′-biinden-2-yl)methyl)benzoate]
[1]; 3 mg/kg
  inhibition of colon shortening (colon length) day 7 versus vehicle: did not have a significant effect
[1]; 10 mg/Kg, P<0.01
  colon pathology (histology score) relative to vehicle: highly statistically significant reduction
[1]; [6]
  disease activity index (DAI) at day 7: 3.3±0.52
[1]; 10 mg/kg
  inhibition of colon shortening (colon length) day 7 versus vehicle: did have a significant effect
[1]; 30 mg/Kg versus prednisolone 5 mg/Kg
  therapeutic efficacy in the DSS model relative to prednisolone: comparable, or better, efficacy relative to prednisolone
[1]; 30 mg/Kg, P<0.01
  colon pathology (histology score) relative to vehicle: highly statistically significant reduction
[1]; 30 mg/kg versus Prednisolone 5 mg/kg, P<0.05
  colon length day 7 compared with Prednisolone: significantly better than Prednisolone
[1]; 30 mg/kg
  colon IL1β level versus DSS vehicle: significant (P<0.05, 30 mg/kg) and dose-dependant reduction
  colon TNFα level versus DSS vehicle: significant (P<0.05, 30 mg/kg) and dose-dependant reduction
  colon IL6 level versus DSS vehicle: significant (P<0.05, 30 mg/kg) and dose-dependant reduction
  inhibition of colon shortening (colon length) day 7 versus vehicle: did have a significant effect
[1]; 30 mg/kg, P<0.05
  reduction of colonic myeloperoxidase (MPO) activity: 63%
[1]; 3, 10 and 30 mg/Kg oral daily for 7 days, dose-dependent
  severity of colitis, multiple parameters of disease: ameliorated the severity of colitis
[1]; 3-30 mg/kg, each dose level
  DAI on the day of autopsy versus vehicle controls: significantly (P<0.05−P<0.01) lower DAI
[1]; oral daily for 7 days, 3, 10 and 30 mg/Kg
  overt reactions in mice: no overt reactions
[4]
  survival over 9 weeks by Kaplan-Meier analysis versus vehicle: no statistical difference in survival
[4]; 9 weeks, vehicle 25%
  mortalities: 9.2%
[4]; 9 weeks, vehicle stopped gaining from week 5, FIG. 15
  weight gain: maintained weight gain until week 8
[4]; week 9, FIG. 16
  Serum Amyloid A (SAA) levels relative to vehicle: significantly (P<0.05; Student's t-test) reduced SAA levels
[4]; week 9, P<0.05, FIG. 18
  extent of colon pathology (histology score of distal colon) relative to vehicle: significantly reduced
[2]; Milli-RO water, * = estimated value, read-out: solubility Milli-RO H20
  solubility: > 60 mg/mL
[2]; aqueous buffer, pH 7.0 buffer, * = estimated value, read-out: solubility pH 7.0 Buffer
  solubility: > 60 mg/mL
[2]; aqueous buffer, pH 9.0 buffer, * = estimated value, read-out: solubility pH 9.0 Buffer
  solubility: > 3 mg/mL
[3]
  Acid Log10 POW: 2.6
  Basic Log10 POW: 4.3
  Neutral Log10 POW: 3.5
